Tests used:
[1] = tested on: XPO1-KO (sgXPO1) cells; assay: Selinexor specificity assay: viability of XPO1-expressing and XPO1-KO isogenic cells; format: cell-based; details: XPO1-KO isogenic cell line; viability normalized to untreated
From the text: HSA synergy scores for H69 Cisplatin+Selinexor and H69 Cisplatin+KPT-185 are 6.55 and 8.52, respectively. HSA synergy scores for H82 Cisplatin+Selinexor and H82 Cisplatin+KPT-185 are 12.29 and 10.68, respectively. […] The sequence of the sgXPO1 is AACCTGAACGAAATGCCTG (SEQ ID NO: 16). […] Two tailed Student's t-test was used to assess statistical significance of the differential expression between groups. p-values legend: * p<0.05, ** p<0.01, *** p<0.001.

[2] = tested on: Lx304 ASCL1^high chemonaive SCLC PDX; assay: In vivo treatment, tumor growth of chemonaive SCLC PDX Lx304; details: Lx304 PDX in NSG mice; day 14; cisplatin 2 mg/kg i.p. once/week, etoposide 3 mg/kg i.p. QDx3, Selinexor 10 mg/kg p.o. QDx3
Procedure: (§1) For treatments, 5-10 NOD.Cg-Prkd^scid Il2rg^tm1Wjl/SzJ (NSG) mice were engrafted per treatment arm and incubated until they reached 100-150 mm^3. At that point, mice were randomized into groups and treated with either vehicle, Cisplatin (2 mg/kg i.p. once/week), Etoposide (3 mg/kg i.p. QD×3), Selinexor (10 mg/kg p.o. QD×3), irinotecan (50 mg/kg i.p. WQ), or the combinations of cisplatin+etoposide, cisplatin+Selinexor, cisplatin+etoposide+Selinexor or irinotecan+Selinexor, at the previously mentioned doses. Mice weights and tumor volumes were measured twice a week and mice were sacrificed when tumors reached humane endpoint. All animal experiments were approved by the Memorial Sloan Kettering Cancer Center (MSKCC) Animal Care and Use Committee.

[3] = tested on: Lx33 NEUROD1^high chemonaive SCLC PDX; assay: In vivo treatment, tumor growth of chemonaive SCLC PDX Lx33; details: Lx33 PDX in NSG mice; day 17; cisplatin 2 mg/kg i.p. once/week, etoposide 3 mg/kg i.p. QDx3, Selinexor 10 mg/kg p.o. QDx3
Procedure: as §1

[4] = tested on: AKT/mTOR pathway in H69 and H82 cell lines; assay: Western blot of AKT/mTOR pathway activation; format: cell-based; parameters: concentration or dose not given beside the values; details: selinexor or combinations for 7 days
Procedure: FIGS. 9A-9G show impairment of chemotherapy-induced AKT/mTOR overactivation may contribute to selinexor efficacy in combination with chemotherapy. […] Synergy plots, showing the occurrence of synergy, addition, or antagonism (green), were calculated with the HSA method using the SynergyFinder web application (2.0).
(§2) Protein extraction and western blot were performed as previously described in Gardner, E. E. et al., Cancer Cell 31: 286-299 (2017), which is incorporated by reference in its entirety herein. Antibodies for pγH2AX (#39117, Active Motif, Carlsbad, CA), pATR (#53217, Cell Signaling Technology, Danvers, MA, Danvers, MA), ATR (#13934, Cell Signaling Technology, Danvers, MA, Danvers, MA), pATM (#31068, Cell Signaling Technology, Danvers, MA, Danvers, MA), ATM (#2873, Cell Signaling Technology, Danvers, MA, Danvers, MA), pChk2 (#12298, Cell Signaling Technology, Danvers, MA, Danvers, MA), Chk2 (#2662, Cell Signaling Technology, Danvers, MA, Danvers, MA), MSH2 (#2017, Cell Signaling Technology, Danvers, MA, Danvers, MA), MLH1 (#3515, Cell Signaling Technology, Danvers, MA, Danvers, MA), XPO1 (#46249, Cell Signaling Technology, Danvers, MA, Danvers, MA), and actin (#3700, Cell Signaling Technology, Danvers, MA, Danvers, MA). Quantifications were performed with the Image Studio software (Version 3.1, LI-COR Biosciences, Lincoln, NE). Immunohistochemistry for Exportin-1 was performed with the Exportin-1 antibody #611833 from BD in TMAs including resected tumor samples form SCLC and NSCLC patients. All study subjects had provided signed informed consent for biospecimen analyses under an Institutional Review Board-approved protocol.

[5] = tested on: H82 cells; assay: Propidium iodide / annexin V apoptosis assay by flow cytometry; format: cell-based; details: GI20 concentrations, 3 days
Procedure: Parental cells were treated with cisplatin (GI20), Selinexor (GI20) or their combination for 3 days. Alternatively, control and XPO1 CRISPR-KO cells were treated with cisplatin […] for 3 days. Then, cells were collected and stained with the APC Annexin V Apoptosis Detection Kit with PI (#640932, Biolegend, San Diego, CA) and apoptosis was analyzed by flow cytometry as previously described in Shrestha, C. L. et al., PLoS One 12: 1-17 (2017).

[6] = tested on: DNA damage response pathways in H82 cells; assay: Western blot of DNA damage sensing and repair proteins; format: cell-based
Procedure: as §2

[7] = tested on: Lx304B ASCL1^high SCLC PDX from chemorelapsed tumor; assay: In vivo treatment, tumor growth of chemorelapsed SCLC PDX Lx304B; details: Lx304B PDX in NSG mice; day 24; irinotecan 50 mg/kg i.p. WQ, Selinexor 10 mg/kg p.o. QDx3
Procedure: as §1

[8] = tested on: Lx1322 non-NE SCLC PDX from chemorelapsed tumor; assay: In vivo treatment, tumor growth of chemorelapsed SCLC PDX Lx1322; details: Lx1322 PDX in NSG mice; day 14; irinotecan 50 mg/kg i.p. WQ, Selinexor 10 mg/kg p.o. QDx3
Procedure: as §1

[9] = tested on: Lx108-R ASCL1^high cisplatin/etoposide-resistant SCLC PDX; assay: In vivo treatment, tumor growth of cisplatin/etoposide-resistant SCLC PDX Lx108-R; parameters: species or system mice; details: right after chemotherapy relapse in vivo
Procedure: as §1

SMILES | cell viability after Selinexor treatment in the XPO1-KO cell line [1] | T/C percentage values at control group endpoint [2] [%] | T/C percentage values at control arm endpoint [3] [%] | phosphorylation of mTOR, AKT and PRAS40 / AKT/mTOR pathway activation (Western blot) [4] | apoptosis (propidium iodide/annexin V) [5] | reduction in the expression of MSH2 and MLH1 (Western blot) ([6]; Selinexor treatment) | activation of ATR and ATM (Western blot) ([6]; cisplatin treatment) | T/C percentage values at control arm endpoint [7] [%] | T/C percentage values at control arm endpoint [8] [%] | T/C percentage at experiment endpoint [9] [%]
O=C(/C=C\n1cnc(-c2cc(C(F)(F)F)cc(C(F)(F)F)c2)n1)NNc1cnccn1 [Selinexor] | no effect in viability | 38.52 | 40.99 | suppressed | increased apoptosis | not observed | – | – | – | –
N.N.[Cl][Pt][Cl] [cisplatin] | – | 67.04 | 79.73 | Increased phosphorylation | – | – | activated | – | – | –
COc1cc([C@@H]2c3cc4c(cc3[C@@H](O[C@@H]3O[C@@H]5CO[C@@H](C)O[C@H]5[C@H](O)[C@H]3O)[C@H]3COC(=O)[C@H]23)OCO4)cc(OC)c1O [etoposide] | – | 54.59 | 63.14 | – | – | – | – | – | – | –
CCc1c2c(nc3ccc(OC(=O)N4CCC(N5CCCCC5)CC4)cc13)-c1cc3c(c(=O)n1C2)COC(=O)[C@]3(O)CC [irinotecan] | – | – | – | induced | – | – | – | 23.82 | 18.09 | 75.27

— patent US20240254564A1, “METHODS FOR PREDICTING AND TREATING CHEMORESISTANCE IN SMALL CELL LUNG CANCER PATIENTS” (MEMORIAL SLOAN-KETTERING CANCER CENTER, priority 2021, published 2024)
